The source of these data is patent US20250250230A1, “HETEROCYCLIC COMPOUND” (TAKEDA PHARMACEUTICAL COMPANY LIMITED, priority 2022, published 2025).

Test [1] has as its target T1, human orexin type 2 receptor (Homo sapiens, UniProt O43614).
T1 construct: expressed in transfected cells
T1 sequence (O43614 1-444): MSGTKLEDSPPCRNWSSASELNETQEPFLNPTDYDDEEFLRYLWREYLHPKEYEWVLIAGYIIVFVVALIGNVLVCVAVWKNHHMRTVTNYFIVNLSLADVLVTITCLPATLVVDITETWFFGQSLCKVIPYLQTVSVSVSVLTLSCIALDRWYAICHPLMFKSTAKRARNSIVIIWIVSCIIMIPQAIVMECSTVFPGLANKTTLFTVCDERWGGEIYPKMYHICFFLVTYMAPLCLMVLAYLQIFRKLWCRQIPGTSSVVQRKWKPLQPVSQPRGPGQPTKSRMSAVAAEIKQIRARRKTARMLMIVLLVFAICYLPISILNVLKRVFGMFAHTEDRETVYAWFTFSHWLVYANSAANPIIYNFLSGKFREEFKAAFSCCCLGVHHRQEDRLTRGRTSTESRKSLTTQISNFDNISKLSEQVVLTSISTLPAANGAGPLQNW
Briefly: Measurement of orexin type 2 receptor agonist activity (calcium fluorescence, Fluo-4 AM, FDSS). Type of test: cell-based. The conditions noted are these: test compound 3 μM; CHO cells expressing human OX2 receptor; DMSO = 0%, orexin A (human) = 100%. The procedure, abridged:
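Agonist response scaled between vehicle (0%) and human orexin A at 10 nM final (100%), from 2-min kinetic Fluo-4 fluorescence reads. Stable hOX2R CHO-K1 clone, dye-loaded in HBSS/20 mM HEPES/0.1% BSA with 1.25 mM probenecid before compound addition.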

The subject of test [2] is cynomolgus monkeys. The test is described as follows: Evaluation of wake-promoting effects in cynomolgus monkeys (EEG/EMG). Type of test: in vivo, cynomolgus monkey. The conditions noted are these: 10 mg/kg p.o. at ZT12, time spent in wakefulness for 4 h after administration, male cynomolgus monkeys, n=2. The method, then:
The wake-promoting effects were evaluated by measuring the electroencephalogram (EEG) and electromyogram (EMG) in cynomolgus monkeys. Under isoflurane anesthesia (0.5-5%, Pfizer Japan Inc., Tokyo, Japan), male cynomolgus monkeys (2-3 years old, Hamri Co., Ltd., Ibaraki, Japan) were surgically implanted with radio-telemetry transmitters (L03-F3, Data Sciences International Inc., MN, USA). EEG electrodes were screwed into the skull at the parietal area. EMG electrodes were implanted on the cervical muscles. After the surgery, each monkey was given penicillin (100,000 units/head, i.m., Meiji Seika Pharma Co., Ltd., Tokyo, Japan), buprenorphine (0.02 mg/kg, i.m., Otsuka Pharmaceutical Co., Ltd., Tokyo, Japan) and prednisolone (1 mg/kg, s.c., Kyoritsu Seiyaku Co., Ltd., Tokyo, Japan) daily for one week. After at least a 1-month recovery period in home cages, the monkeys were habituated to the recording chamber placed in a soundproof room. EEG and EMG signals were recorded using the telemetry system (Ponemah software, Data Sciences International Inc., MN, USA) and the signals were analyzed using SleepSign software (Kissei Comtec Co., Ltd., Nagano, Japan). After confirming long sleep in dark phase in the experimental room, we used animals to examine the wake-promoting effect of compounds. Test compounds (10 mg/kg) suspended in 0.5% methylcellulose aqueous solution, or vehicle (i.e., 0.5% methylcellulose aqueous solution) was administered orally (p.o.) to monkeys at zeitgeber time 12 (ZT12) in a volume of 5 mL/kg body weight in pre-post design (n=2). EEG and EMG recordings were performed for 4 h after the compound administration. The time spent in wakefulness for 4 h after administration (% of vehicle treatment) was calculated by using SleepSign.

With `C[C@H](NS(C)(=O)=O)[C@@H]1CCN1C(=O)[C@@H]1C[C@@]1(F)c1ccccc1-c1c(F)cccc1F` [Example 353, N-[(1S)-1-{(2S)-1-[(1S,2S)-2-(2′,6′-difluoro [1,1′-biphenyl]-2-yl)-2-fluorocyclopropane-1-carbonyl]azetidin-2-yl}ethyl]methanesulfonamide], the “OX2R agonist activity (3 μM, %)” value in test [1] amounted to 102%. In addition, the “Wakefulness time (% of vehicle treatment) (Mean)” value in test [2] is listed as 397.50 % of vehicle treatment.
Taken in the same sequence, the figures for `C[C@@H]1CN(C(=O)[C@@H]2C[C@@]2(F)c2ccccc2-c2c(F)cccc2F)[C@@H]1CNS(C)(=O)=O` [Example 358, N-({(2S,3R)-1-[(1S,2S)-2-(2′,6′-difluoro[1,1′-biphenyl]-2-yl)-2-fluorocyclopropane-1-carbonyl]-3-methylazetidin-2-yl}methyl)methanesulfonamide] were 96% and 407.11 % of vehicle treatment.
As for `CCS(=O)(=O)NC[C@@H]1[C@H](F)CN1C(=O)[C@@H]1C[C@@]1(F)c1ccccc1-c1c(F)cccc1F` [Example 393, N-({(2R,3R)-1-[(1S,2S)-2-(2′,6′-difluoro [1,1′-biphenyl]-2-yl)-2-fluorocyclopropane-1-carbonyl]-3-fluoroazetidin-2-yl}methyl)ethanesulfonamide], the “OX2R agonist activity (3 μM, %)” value in test [1] is listed as 104%. For the same compound, the “Wakefulness time (% of vehicle treatment) (Mean)” value in test [2] is on record as 731.96 % of vehicle treatment.
The matching figures for `Cc1ccc([C@]2(F)C[C@H]2C(=O)N2C[C@@H](F)[C@H]2CNS(C)(=O)=O)c(-c2c(F)cccc2F)c1` [Example 411, N-({(2R,3R)-1-[(1S,2S)-2-(2′,6′-difluoro-5-methyl [1,1′-biphenyl]-2-yl)-2-fluorocyclopropane-1-carbonyl]-3-fluoroazetidin-2-yl}methyl)methanesulfonamide]: 95% and 361.41 % of vehicle treatment.
As to `CCS(=O)(=O)NC[C@@H]1[C@H](F)CN1C(=O)[C@@H]1C[C@@]1(F)c1ccc(F)cc1-c1c(F)cccc1F` [Example 412, N-({(2R,3R)-3-fluoro-1-[(1S,2S)-2-fluoro-2-(2′,5,6′-trifluoro[1,1′-biphenyl]-2-yl)cyclopropane-1-carbonyl]azetidin-2-yl}methyl)ethanesulfonamide], the “OX2R agonist activity (3 μM, %)” value in test [1] is recorded as 111%. Also, the “Wakefulness time (% of vehicle treatment) (Mean)” value in test [2] was 573.33 % of vehicle treatment.
In the case of `CNS(=O)(=O)NC[C@@H]1[C@H](F)CN1C(=O)[C@@H]1C[C@@]1(F)c1ccc(F)cc1-c1c(F)cccc1F` [Example 423, N-({(2R,3R)-3-fluoro-1-[(1S,2S)-2-fluoro-2-(2′,5,6′-trifluoro[1,1′-biphenyl]-2-yl)cyclopropane-1-carbonyl]azetidin-2-yl}methyl)-N′-methylsulfuric Diamide], the “OX2R agonist activity (3 μM, %)” value in test [1] came to 102%. In addition, the “Wakefulness time (% of vehicle treatment) (Mean)” value in test [2] was 391.59 % of vehicle treatment.
For the compound `CNS(=O)(=O)NC[C@@H]1[C@H](F)CN1C(=O)[C@@H]1C[C@@]1(F)c1ccc(Cl)cc1-c1c(F)cccc1F` [Example 443, N-({(2R,3R)-1-[(1S,2S)-2-(5-chloro-2′,6′-difluoro[1,1′-biphenyl]-2-yl)-2-fluorocyclopropane-1-carbonyl]-3-fluoroazetidin-2-yl}methyl)-N′-methylsulfuric diamide], the “OX2R agonist activity (3 μM, %)” value in test [1] is 100%.
As for `CC(C)S(=O)(=O)NC[C@@H]1[C@H](F)CN1C(=O)[C@@H]1C[C@@]1(F)c1ccc(F)cc1-c1c(F)cccc1F` [Example 444, N-({(2R,3R)-3-fluoro-1-[(1S,2S)-2-fluoro-2-(2′,5,6′-trifluoro[1,1′-biphenyl]-2-yl)cyclopropane-1-carbonyl]azetidin-2-yl}methyl)propane-2-sulfonamide], the “OX2R agonist activity (3 μM, %)” value in test [1] stood at 96%.
Consider `O=C([C@@H]1C[C@@]1(F)c1ccc(F)cc1-c1c(F)cccc1F)N1C[C@@H](F)[C@H]1CNS(=O)(=O)CC1CC1` [Example 445, 1-cyclopropyl-N-({(2R,3R)-3-fluoro-1-[(1S,2S)-2-fluoro-2-(2′,5,6′-trifluoro[1,1′-biphenyl]-2-yl)cyclopropane-1-carbonyl]azetidin-2-yl}methyl)methanesulfonamide], for which, in test [1], the “OX2R agonist activity (3 μM, %)” value stood at 76%.
As to `O=C([C@@H]1C[C@@]1(F)c1ccc(F)cc1-c1c(F)cccc1F)N1C[C@@H](F)[C@H]1CNS(=O)(=O)N1CCC1` [Example 446, N-({(2R,3R)-3-fluoro-1-[(1S,2S)-2-fluoro-2-(2′,5,6′-trifluoro[1,1′-biphenyl]-2-yl)cyclopropane-1-carbonyl]azetidin-2-yl}methyl)azetidine-1-sulfonamide], the “OX2R agonist activity (3 μM, %)” value in test [1] worked out at 100%.
For `O=C([C@@H]1C[C@@]1(F)c1ccc(F)cc1-c1c(F)cccc1F)N1C[C@@H](F)[C@H]1CNS(=O)(=O)NC1CC1` [Example 447, N-cyclopropyl-N′-({(2R,3R)-3-fluoro-1-[(1S,2S)-2-fluoro-2-(2′,5,6′-trifluoro[1,1′-biphenyl]-2-yl)cyclopropane-1-carbonyl]azetidin-2-yl}methyl)sulfuric diamide], the “OX2R agonist activity (3 μM, %)” value in test [1] was found to be 90%.
With `O=C([C@@H]1C[C@@]1(F)c1ccc(F)cc1-c1c(F)cccc1F)N1C[C@@H](F)[C@H]1CNS(=O)(=O)C(F)F` [Example 448, 1,1-difluoro-N-({(2R,3R)-3-fluoro-1-[(1S,2S)-2-fluoro-2-(2′,5,6′-trifluoro[1,1′-biphenyl]-2-yl)cyclopropane-1-carbonyl]azetidin-2-yl}methyl)methanesulfonamide], the “OX2R agonist activity (3 μM, %)” value in test [1] came out at 98%.
Same read-out and setting: next, `O=C([C@@H]1C[C@@]1(F)c1ccc(F)cc1-c1c(F)cccc1F)N1C[C@@H](F)[C@H]1CNS(=O)(=O)C(F)(F)F` [Example 449, 1,1,1-trifluoro-N-({(2R,3R)-3-fluoro-1-[(1S,2S)-2-fluoro-2-(2′,5,6′-trifluoro[1,1′-biphenyl]-2-yl)cyclopropane-1-carbonyl]azetidin-2-yl}methyl)methanesulfonamide]: 94%; `CS(=O)(=O)NCC1CCN(C(=O)[C@@H]2C[C@@]2(F)c2ccccc2-c2c(F)cccc2F)C1` (stereo partly drawn) [Example 450, N-({(3R)-1-[(1S,2S)-2-(2′,6′-difluoro[1,1′-biphenyl]-2-yl)-2-fluorocyclopropane-1-carbonyl]pyrrolidin-3-yl}methyl)methanesulfonamide, or N-({(3S)-1-[(1S,2S)-2-(2′,6′-difluoro[1,1′-biphenyl]-2-yl)-2-fluorocyclopropane-1-carbonyl]pyrrolidin-3-yl}methyl)methanesulfonamide]: 96%.
Consider “N-({(2S,3R)-1-[(1R,2R)-2-fluoro-2-(2′- fluoro[1,1′-biphenyl]-2- yl)cyclopropane-1-carbonyl]-3- methylazetidin-2- yl}methyl)ethanesulfonamide, or N- ({(2S,3R)-1-[(1S,2S)-2-fluoro-2-(2′- fluoro[1,1′-biphenyl]-2- yl)cyclopropane-1-carbonyl]-3- methylazetidin-2- yl}methyl)ethanesulfonamide [Example 439]”, for which the “OX2R agonist activity (3 μM, %)” value in test [1] is listed as 107%.
